Source: ChEMBL document CHEMBL4308907, “Pyrrolidinone-bearing methylated and halogenated benzenesulfonamides as inhibitors of carbonic anhydrases” (Bioorg Med Chem, 2019)
pKd: −log10 of the molar value.

Experiments:
Carbonic anhydrase 1 = Carbonic anhydrase 1 (Homo sapiens, UniProt P00915); assay: Binding affinity to recombinant human CA1 by DSF-based fluorescence thermal shift assay
Carbonic anhydrase 2 = Carbonic anhydrase 2 (Homo sapiens, UniProt P00918); assay: Binding affinity to recombinant human CA2 by DSF-based fluorescence thermal shift assay
Carbonic anhydrase 4 = Carbonic anhydrase 4 (Homo sapiens, UniProt P22748); assay: Binding affinity to recombinant human CA4 by DSF-based fluorescence thermal shift assay
[1] = target: Carbonic anhydrase 5B, mitochondrial (Homo sapiens, UniProt Q9Y2D0); assay: Binding affinity to recombinant full length N-terminal His6x-tagged human CA5B expressed in Escherichia coli Rosetta 2 (DE3) by DSF-based fluorescence thermal shift assay
Carbonic anhydrase 6 = Carbonic anhydrase 6 (Homo sapiens, UniProt P23280); assay: Binding affinity to recombinant human CA6 by DSF-based fluorescence thermal shift assay
Carbonic anhydrase 7 = Carbonic anhydrase 7 (Homo sapiens, UniProt P43166); assay: Binding affinity to recombinant human CA7 by DSF-based fluorescence thermal shift assay
Carbonic anhydrase 9 = Carbonic anhydrase 9 (Homo sapiens, UniProt Q16790); assay: Binding affinity to recombinant human CA9 by DSF-based fluorescence thermal shift assay
Carbonic anhydrase 12 = Carbonic anhydrase 12 (Homo sapiens, UniProt O43570); assay: Binding affinity to recombinant human CA12 by DSF-based fluorescence thermal shift assay
Carbonic anhydrase 13 = Carbonic anhydrase 13 (Homo sapiens, UniProt Q8N1Q1); assay: Binding affinity to recombinant human CA13 by DSF-based fluorescence thermal shift assay
Carbonic anhydrase 3 = Carbonic anhydrase 3 (Homo sapiens, UniProt P07451); assay: Binding affinity to recombinant N-terminal His6x-tagged human CA3 (4 to 260 residues) expressed in Escherichia coli BL21(DE3) by DSF-based fluorescence thermal shift assay
Chain of Carbonic anhydrase 3 (P07451 whole entry, the tested form may be a part): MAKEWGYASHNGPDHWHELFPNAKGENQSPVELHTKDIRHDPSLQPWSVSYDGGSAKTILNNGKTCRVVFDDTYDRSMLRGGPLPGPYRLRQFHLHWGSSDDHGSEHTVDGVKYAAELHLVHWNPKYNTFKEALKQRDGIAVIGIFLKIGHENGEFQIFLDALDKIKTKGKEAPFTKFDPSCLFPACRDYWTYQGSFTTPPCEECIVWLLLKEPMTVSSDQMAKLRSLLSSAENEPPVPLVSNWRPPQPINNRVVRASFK

Chain of Carbonic anhydrase 12 (O43570 whole entry): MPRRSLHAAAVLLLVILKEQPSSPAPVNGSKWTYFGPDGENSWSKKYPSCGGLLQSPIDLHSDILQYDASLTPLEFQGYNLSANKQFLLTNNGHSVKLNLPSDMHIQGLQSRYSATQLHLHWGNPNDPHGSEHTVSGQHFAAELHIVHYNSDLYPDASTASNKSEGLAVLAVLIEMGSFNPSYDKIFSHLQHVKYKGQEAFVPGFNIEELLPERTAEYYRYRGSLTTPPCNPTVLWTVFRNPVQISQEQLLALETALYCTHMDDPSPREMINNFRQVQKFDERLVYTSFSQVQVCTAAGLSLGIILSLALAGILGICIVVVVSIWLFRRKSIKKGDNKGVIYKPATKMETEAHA
Chain of Carbonic anhydrase 6 (P23280 whole entry): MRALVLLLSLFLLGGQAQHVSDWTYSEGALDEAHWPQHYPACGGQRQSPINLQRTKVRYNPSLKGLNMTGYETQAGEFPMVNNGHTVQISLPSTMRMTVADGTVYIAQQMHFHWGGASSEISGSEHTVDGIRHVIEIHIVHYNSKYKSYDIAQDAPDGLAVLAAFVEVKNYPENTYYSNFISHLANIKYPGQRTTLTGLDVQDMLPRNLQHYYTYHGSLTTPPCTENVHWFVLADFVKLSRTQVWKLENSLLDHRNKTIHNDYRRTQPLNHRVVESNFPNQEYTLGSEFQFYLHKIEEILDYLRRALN
Chain of Carbonic anhydrase 13 (Q8N1Q1 whole entry, the tested form may be a part): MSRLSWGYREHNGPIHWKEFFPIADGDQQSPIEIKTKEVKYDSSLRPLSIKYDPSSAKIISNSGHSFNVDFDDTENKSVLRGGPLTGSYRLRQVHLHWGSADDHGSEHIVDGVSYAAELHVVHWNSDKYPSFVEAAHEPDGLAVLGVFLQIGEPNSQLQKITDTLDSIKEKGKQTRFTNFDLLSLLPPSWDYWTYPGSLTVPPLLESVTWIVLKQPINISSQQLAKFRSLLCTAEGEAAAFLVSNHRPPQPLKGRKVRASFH
Chain of Carbonic anhydrase 1 (P00915 whole entry): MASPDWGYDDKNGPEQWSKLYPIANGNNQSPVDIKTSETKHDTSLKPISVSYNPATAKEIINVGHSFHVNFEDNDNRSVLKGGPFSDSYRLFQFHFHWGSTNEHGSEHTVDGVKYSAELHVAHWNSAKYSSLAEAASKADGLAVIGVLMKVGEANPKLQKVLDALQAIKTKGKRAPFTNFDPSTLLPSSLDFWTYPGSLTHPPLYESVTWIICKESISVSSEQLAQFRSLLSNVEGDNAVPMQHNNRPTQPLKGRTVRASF
Chain of Carbonic anhydrase 4 (P22748 whole entry): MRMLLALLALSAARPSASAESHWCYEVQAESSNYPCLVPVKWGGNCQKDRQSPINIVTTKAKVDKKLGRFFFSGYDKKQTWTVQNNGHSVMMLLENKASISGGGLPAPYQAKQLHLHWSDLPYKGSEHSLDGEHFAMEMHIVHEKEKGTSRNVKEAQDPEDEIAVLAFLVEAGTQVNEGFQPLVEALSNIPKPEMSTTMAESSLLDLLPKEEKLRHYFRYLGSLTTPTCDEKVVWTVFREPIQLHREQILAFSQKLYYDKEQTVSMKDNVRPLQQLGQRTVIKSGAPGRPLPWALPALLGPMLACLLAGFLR
Chain of Carbonic anhydrase 5B, mitochondrial (Q9Y2D0 whole entry): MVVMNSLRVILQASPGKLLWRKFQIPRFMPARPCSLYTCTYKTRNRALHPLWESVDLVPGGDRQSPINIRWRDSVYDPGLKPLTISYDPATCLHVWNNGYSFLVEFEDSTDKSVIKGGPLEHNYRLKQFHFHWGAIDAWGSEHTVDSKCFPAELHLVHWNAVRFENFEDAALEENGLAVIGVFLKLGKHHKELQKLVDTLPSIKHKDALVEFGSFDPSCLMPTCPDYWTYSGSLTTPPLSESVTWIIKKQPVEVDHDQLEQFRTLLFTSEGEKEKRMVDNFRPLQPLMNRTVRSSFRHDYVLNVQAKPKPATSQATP
Chain of Carbonic anhydrase 7 (P43166 whole entry): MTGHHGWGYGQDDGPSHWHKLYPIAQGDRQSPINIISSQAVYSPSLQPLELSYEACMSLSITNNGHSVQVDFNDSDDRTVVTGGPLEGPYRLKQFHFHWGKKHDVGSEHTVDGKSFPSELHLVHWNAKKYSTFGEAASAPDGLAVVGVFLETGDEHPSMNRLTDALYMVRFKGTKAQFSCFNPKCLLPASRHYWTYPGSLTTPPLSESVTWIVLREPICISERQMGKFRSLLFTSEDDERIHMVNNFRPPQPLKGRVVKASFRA

Structure (SMILES)	pKd (Carbonic anhydrase 1)	pKd (Carbonic anhydrase 2)	pKd (Carbonic anhydrase 4)	pKd [1]	pKd (Carbonic anhydrase 6)	pKd (Carbonic anhydrase 7)	pKd (Carbonic anhydrase 9)	pKd (Carbonic anhydrase 12)	pKd (Carbonic anhydrase 13)	pKd (Carbonic anhydrase 3)
Cc1cc(NCC(CC(=O)O)c2n[nH]c(=S)n2-c2ccccc2)c(Cl)c(C)c1S(N)(=O)=O (stereo not given)	4.40	4.77	5.00	5.00	5.00	5.11	6.00	5.60	5.85	–
NS(=O)(=O)c1ccc(NC(=O)C2CC(=O)N(c3ccccc3)C2)cc1 (stereo not given)	6.59	7.06	6.07	6.26	5.44	6.96	7.28	5.25	6.18	≤ 3.70
Cc1cc(NCC(CC(=O)O)c2n[nH]c(=S)n2-c2ccccc2)cc(C)c1S(N)(=O)=O (stereo not given)	4.00	4.00	≤ 3.70	≤ 3.70	≤ 3.70	≤ 3.70	–	4.30	4.48	–
NS(=O)(=O)c1ccc(NC(=O)C2CC(=O)N(c3cccc(Br)c3)C2)cc1 (stereo not given)	6.51	6.72	6.09	6.13	5.62	6.77	7.25	5.00	5.96	≤ 3.70
Cc1cc(N2CC(C(=O)N/N=C/c3ccc(Br)cc3)CC2=O)cc(C)c1S(N)(=O)=O (stereo not given)	5.60	5.54	4.70	6.20	4.74	4.43	5.60	4.48	4.48	≤ 3.70
Cc1cc(N2CC(c3n[nH]c(=S)o3)CC2=O)cc(C)c1S(N)(=O)=O (stereo not given)	5.00	5.11	5.16	5.70	4.30	4.70	5.48	≤ 3.70	≤ 3.70	≤ 3.70
Cc1cc(N2CC(C(=O)NNC(=S)Nc3ccccc3)CC2=O)c(Cl)c(C)c1S(N)(=O)=O (stereo not given)	6.44	7.49	–	6.70	5.66	7.00	7.00	6.44	7.85	–
Cc1c(Br)c(N2CC(C(=O)N/N=C/c3ccccc3)CC2=O)c(Br)c(C)c1S(N)(=O)=O (stereo not given)	≤ 3.70	≤ 3.70	≤ 3.70	≤ 3.70	≤ 3.70	≤ 3.70	≤ 3.70	≤ 3.70	≤ 3.70	≤ 3.70
COc1ccc(/C=N/NC(=O)C2CC(=O)N(c3cc(C)c(S(N)(=O)=O)c(C)c3Cl)C2)cc1 (stereo not given)	6.15	7.25	6.74	8.49	6.23	7.80	7.11	–	7.30	≤ 3.70
Cc1cc(C)n(NC(=O)C2CC(=O)N(c3cc(C)c(S(N)(=O)=O)c(C)c3Cl)C2)n1 (stereo not given)	5.96	7.70	–	7.00	5.48	7.60	7.00	5.70	8.00	–
Cc1cc(C)cc(NC(=O)C2CC(=O)N(c3ccccc3)C2)c1 (stereo not given)	≤ 3.70	≤ 3.70	≤ 3.70	≤ 3.70	≤ 3.70	–	≤ 3.70	≤ 3.70	≤ 3.70	≤ 3.70
COC(=O)C1CC(=O)N(c2c(Br)c(C)c(S(N)(=O)=O)c(C)c2Br)C1 (stereo not given)	≤ 3.70	≤ 3.70	≤ 3.70	≤ 3.70	≤ 3.70	≤ 3.70	≤ 3.70	≤ 3.70	≤ 3.70	≤ 3.70
COc1ccc(/C=N/NC(=O)C2CC(=O)N(c3cc(C)c(S(N)(=O)=O)c(C)c3)C2)cc1 (stereo not given)	5.70	5.70	5.66	6.17	4.85	4.74	5.70	4.74	4.68	≤ 3.70
Cc1cc(N2CC(C(=O)NN3CC(C(=O)O)CC3=O)CC2=O)cc(C)c1S(N)(=O)=O (stereo not given)	4.89	5.15	5.04	5.11	4.08	4.48	5.40	4.66	5.17	≤ 3.70
Cc1cc(N2CC(c3n[nH]c(=S)n3-c3ccccc3)CC2=O)cc(C)c1S(N)(=O)=O (stereo not given)	5.60	5.70	5.15	6.11	4.39	5.27	5.85	5.00	5.70	≤ 3.70
Cc1cc(NC(=O)C2CC(=O)N(c3ccccc3)C2)cc(C)c1S(N)(=O)=O (stereo not given)	5.80	–	5.17	–	4.35	5.08	–	≤ 3.70	5.41	≤ 3.70
Cc1cc(N2CC(c3n[nH]c(=S)n3-c3ccccc3)CC2=O)c(Cl)c(C)c1S(N)(=O)=O (stereo not given)	6.36	7.48	–	7.40	5.51	8.06	7.05	6.30	7.77	≤ 3.70
Cc1cc(N2CC(C(=O)NNC(=S)Nc3ccccc3)CC2=O)cc(C)c1S(N)(=O)=O (stereo not given)	6.04	5.96	5.16	6.11	≤ 3.70	5.19	5.85	5.30	6.00	≤ 3.70
Cc1cc(N2CC(C(=O)N/N=C/c3ccc(Br)cc3)CC2=O)c(Cl)c(C)c1S(N)(=O)=O (stereo not given)	6.25	7.30	6.47	8.11	6.04	7.20	6.70	5.85	7.17	≤ 3.70
COC(=O)C1CC(=O)N(c2cc(C)c(S(N)(=O)=O)c(C)c2)C1 (stereo not given)	5.82	5.70	5.17	≤ 3.70	4.30	5.47	5.52	–	5.70	≤ 3.70
Cc1cc(N2CC(c3n[nH]c(=S)o3)CC2=O)c(Cl)c(C)c1S(N)(=O)=O (stereo not given)	6.08	7.00	–	6.60	5.48	6.89	7.17	–	7.00	≤ 3.70
Cc1cc(N2CC(C(=O)N/N=C/c3ccc([N+](=O)[O-])cc3)CC2=O)c(Cl)c(C)c1S(N)(=O)=O (stereo not given)	6.48	7.30	6.32	7.74	6.09	7.37	7.00	5.85	7.25	≤ 3.70
Cc1cc(N2CC(C(=O)O)CC2=O)cc(C)c1S(=O)(=O)Cl (stereo not given)	≤ 3.70	≤ 3.70	≤ 3.70	≤ 3.70	≤ 3.70	≤ 3.70	≤ 3.70	≤ 3.70	≤ 3.70	≤ 3.70
Cc1cc(N2CC(C(=O)N/N=C/c3ccc(Cl)cc3)CC2=O)c(Cl)c(C)c1S(N)(=O)=O (stereo not given)	6.17	7.00	6.29	8.42	6.19	7.46	7.04	5.70	6.70	≤ 3.70
Cc1cc(C)n(C(=O)C2CC(=O)N(c3cc(C)c(S(N)(=O)=O)c(C)c3Cl)C2)n1 (stereo not given)	6.60	7.60	–	7.89	5.48	7.70	6.85	6.00	–	≤ 3.70
Cc1c(Br)c(N2CC(C(=O)NN)CC2=O)c(Br)c(C)c1S(N)(=O)=O (stereo not given)	≤ 3.70	≤ 3.70	≤ 3.70	≤ 3.70	≤ 3.70	≤ 3.70	≤ 3.70	≤ 3.70	≤ 3.70	≤ 3.70
COC(=O)C1CC(=O)N(c2cc(C)c(S(N)(=O)=O)c(C)c2Cl)C1 (stereo not given)	6.17	7.54	6.00	7.60	5.32	7.89	7.00	–	7.85	≤ 3.70
Cc1c(Br)c(N2CC(C(=O)O)CC2=O)c(Br)c(C)c1S(N)(=O)=O (stereo not given)	≤ 3.70	≤ 3.70	≤ 3.70	≤ 3.70	≤ 3.70	≤ 3.70	≤ 3.70	≤ 3.70	≤ 3.70	≤ 3.70
NS(=O)(=O)c1ccc(NC(=O)C2CC(=O)N(c3ccccc3Br)C2)cc1 (stereo not given)	6.68	7.06	6.40	6.72	5.43	7.29	7.42	5.46	6.70	≤ 3.70
Cc1c(Br)c(N2CC(C(=O)N/N=C/c3ccc([N+](=O)[O-])cc3)CC2=O)c(Br)c(C)c1S(N)(=O)=O (stereo not given)	≤ 3.70	≤ 3.70	–	–	–	–	–	≤ 3.70	≤ 3.70	–
